Read-outs that look alike come from different tables or passages of the source.
Legend:
[1] = system: SJSA-1; experiment: Protocol B: SJSA-1 CellTiter-Glo cell viability
Experimental: Protocol B: SJSA-1 and SN40R2 Assays
The CellTiter-Glo® Luminescent Cell Viability Assay is a homogeneous method to determine the number of viable cells in culture based on quantitation of the ATP present, which signals the presence of metabolically active cells. […] 100 μl of CTG reagent (Promega #G7573) was added to all wells and luminescence was measured on the topcount. The EC50 values were determined from a sigmoidal 4 parameter curve fit using XLfit in conjunction with Activity Base (IDBS; Guildford, Surrey, UK).

[2] = system: SJSA-1 (MDM2 amplified, p53 wild-type osteosarcoma); experiment: Protocol A: SJSA-1 growth inhibition (SRB); conditions: Homo sapiens, SJSA-1, 72 h
Experimental: Protocol A: SJSA-1 and SN40R2 Assays
(§1) Following incubation with the SRB dye at room temperature for 30 min, the plates were washed with 1% acetic acid and left to dry. […] The GI50 was calculated by non-linear regression analysis of the data using Prism v4.0 statistical software.

[3] = system: SN40R2 (MDM2 amplified, p53 mutated osteosarcoma); experiment: Protocol A: SN40R2 growth inhibition (SRB); conditions: 72 h
Experimental: Protocol A: SJSA-1 and SN40R2 Assays
as §1

[4] = target: MDM2-p53 interaction (in vitro translated MDM2, biotinylated IP3 peptide) (Homo sapiens, UniProt Q00987); experiment: MDM2-p53 interaction 96-well plate binding assay (ELISA)
Chain of MDM2-p53 interaction (in vitro translated MDM2, biotinylated IP3 peptide) (Q00987 whole entry): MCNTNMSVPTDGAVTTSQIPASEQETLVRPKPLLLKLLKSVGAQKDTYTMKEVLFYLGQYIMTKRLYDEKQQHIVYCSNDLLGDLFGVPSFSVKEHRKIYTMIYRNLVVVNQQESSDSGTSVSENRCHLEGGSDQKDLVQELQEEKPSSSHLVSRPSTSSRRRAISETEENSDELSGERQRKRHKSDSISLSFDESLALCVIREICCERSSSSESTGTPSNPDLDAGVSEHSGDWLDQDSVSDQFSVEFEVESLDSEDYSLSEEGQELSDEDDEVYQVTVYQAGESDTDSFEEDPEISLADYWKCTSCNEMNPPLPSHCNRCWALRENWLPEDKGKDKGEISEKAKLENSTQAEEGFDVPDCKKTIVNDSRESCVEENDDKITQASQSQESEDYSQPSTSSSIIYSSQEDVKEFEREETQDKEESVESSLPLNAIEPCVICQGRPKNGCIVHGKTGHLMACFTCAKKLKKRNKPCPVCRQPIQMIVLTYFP
Experimental: The ELISA assay was performed in streptavidin coated plates which were preincubated with 200 μl per well of 1 μg ml^−1 biotinylated IP3 peptide. The plates were ready to use for MDM2 binding after washing the plate with PBS.
The unbound secondary antibody was removed by washing three times with TBS-Tween. The bound HRP activity was measured by enhanced chemiluminesence (ECL™, Amersham Biosciences) using the oxidation of the diacylhydrazide substrate, luminol, to generate a quantifiable light signal. The percentage of MDM2 inhibition at a given concentration is calculated as the [1−(RLU detected in the compound treated sample−RLU negative DMSO control)÷(RLU of DMSO positive and negative controls)]×100 or as the (RLU detected in the compound treated sample÷RLU of DMSO controls)×100. The IC50 was calculated using a plot of % MDM2 inhibition vs concentration and is the average of two or three independent experiments.

[5] = Homo sapiens, SJSA-1, 72 h, read-out: SJSA1 IC50 (μM) (Protocol B), SJSA-1, Protocol B (CellTiter-Glo), 72 hrs
[6] = read-out: SJSA-1 IC50 (μM) (Protocol A), SJSA-1, Protocol A (SRB), 72 hrs
[7] = read-out: SN40R2 IC50 (μM) (Protocol A)
[8] = read-out: SJSA1 IC50 (μM) (Protocol B), SJSA-1, Protocol B (CellTiter-Glo), 72 hrs
[9] = read-out: SJSA-1 IC50 (Protocol A), SJSA-1 cells, SRB, 72 hrs

Compound	IC50 [1, 5]	IC50 [2, 6]	IC50 [3, 7]	other results
CCC(O)(c1cc(F)c2c(c1)C(=O)N(Cc1ccc(C#N)cn1)[C@@]2(OCCOC)c1ccc(Cl)cc1)c1cn(C)cn1 (single isomer, unassigned) [Example 430]	0.18 µM	0.11 µM	–	–
CCC(O)(c1cc(F)c2c(c1)C(=O)N(Cc1ncc(C#N)cn1)[C@@]2(OCC1(C#N)CC1)c1ccc(Cl)cc1)C1(F)CCN(C)CC1 (single isomer, unassigned) [Example 574]	0.016 µM	0.021 µM	17 µM	–
CO[C@]1(c2ccc(Cl)cc2)c2ccc(C(C)(O)CN3CCOCC3=O)cc2C(=O)N1Cc1ccc(Cl)cn1 (single isomer, unassigned) [Example 328]	–	–	–	IC50 ([3]; read-out: SN40R2 IC50 (Protocol A)): 25 µM; inhibition at 0.1 µM ([4]; @ 0.10 μM, read-out: MDM2 % @ concentration): 42%
CCC(O)(c1cc(F)c2c(c1)C(=O)N(Cc1ncc(C#N)cn1)[C@@]2(OCC1(C#N)CC1)c1ccc(Cl)cc1)c1cn(C)cn1 (single isomer, unassigned) [Example 462]	0.047 µM	0.073 µM	–	–
CCC(O)(c1cc(F)c2c(c1)C(=O)N(Cc1ccc(Cl)cn1)[C@@]2(O[C@H]1CCOC1)c1ccc(Cl)cc1)C1(F)CCNCC1 (single isomer, unassigned) [Example 548]	0.17 µM	0.14 µM	6.3 µM	–
CCC(O)(c1cc(F)c2c(c1)C(=O)N(Cc1ncc(Cl)cn1)[C@@]2(OCC1(C#N)CC1)c1ccc(Cl)cc1)C1(F)CCN(C)CC1 (single isomer, unassigned) [Example 564]	0.00038 µM	–	16 µM	–
CCC(O)(c1cc(F)c2c(c1)C(=O)N(Cc1ncc(C#N)cn1)[C@@]2(OC)c1ccc(Cl)cc1)[C@H]1CC[C@H](O)CC1 (stereo partly drawn) [Example 504, 2-{[(1R)-1-(4-chlorophenyl)-7-fluoro-5-{1-hydroxy-1-[trans-4-hydroxycyclohexyl]propyl}-1-methoxy-3-oxo-2,3-dihydro-1H-isoindol-2-yl]methyl}pyrimidine-5-carbonitrile]	0.034 µM	0.039 µM	48 µM	–
CCC(O)(c1cc(F)c2c(c1)C(=O)N(Cc1ncc(C#N)cn1)[C@@]2(OC)c1ccc(Cl)cc1)C1(F)CCN(C)CC1 (single isomer, unassigned) [Example 575]	0.066 µM	0.028 µM	21 µM	–
CCC(O)(c1cc(F)c2c(c1)C(=O)N(Cc1ncc(C#N)cn1)[C@@]2(OCCO)c1ccc(Cl)cc1)[C@H]1CC[C@H](O)CC1 (stereo partly drawn) [Example 510, 2-{[(1R)-1-(4-chlorophenyl)-7-fluoro-5-{1-hydroxy-1-[trans-4-hydroxycyclohexyl]propyl}-1-(2-hydroxyethoxy)-3-oxo-2,3-dihydro-1H-isoindol-2-yl]methyl}pyrimidine-5-carbonitrile]	0.073 µM	0.084 µM	–	–
CCC(O)(c1cc(F)c2c(c1)C(=O)N(Cc1ncc(Cl)cn1)[C@@]2(O[C@H]1CCOC1)c1ccc(Cl)cc1)C1CCN(C)CC1 (single isomer, unassigned) [Example 449]	0.012 µM	0.041 µM	18 µM	–
CCC(O)(c1cc(F)c2c(c1)C(=O)N(Cc1ncc(Cl)cn1)[C@@]2(O[C@H]1CCOC1)c1ccc(Cl)cc1)C1(F)CCN(C)CC1 (single isomer, unassigned) [Example 571]	0.0085 µM	0.023 µM	17 µM	–
CN1CCC(C(C)(O)c2cc(F)c3c(c2)C(=O)N(Cc2ncc(Cl)cn2)[C@@]3(OCC2(F)COC2)c2ccc(Cl)cc2)CC1 (single isomer, unassigned) [Example 558]	0.082 µM	0.22 µM	35 µM	–
CC[C@@](O)(c1cc(F)c2c(c1)C(=O)N(Cc1ncc(Cl)cn1)[C@@]2(OC)c1ccc(Cl)cc1)C1CCN(C2COC2)CC1 [Example 551, (3R)-3-(4-chlorophenyl)-2-[(5-chloropyrimidin-2-yl)methyl]-4-fluoro-6-[(1S)-1-hydroxy-1-[1-(oxetan-3-yl)piperidin-4-yl]propyl]-3-methoxy-2,3-dihydro-1H-isoindol-1-one]	–	0.031 µM	36 µM	–
CCC(O)(c1cc(F)c2c(c1)C(=O)N(Cc1ncc(Cl)cc1O)[C@@]2(OCCO)c1ccc(Cl)cc1)c1cn(C)cn1 (single isomer, unassigned) [Example 443]	0.093 µM	–	38 µM	–
CCC(O)(c1cc(F)c2c(c1)C(=O)N(Cc1ccc(C#N)cn1)[C@@]2(O[C@H]1C[C@@H](O)C1)c1ccc(Cl)cc1)[C@H]1CC[C@H](O)CC1 (single isomer, unassigned) [Example 518]	–	0.058 µM	–	IC50 [1, 8]: 0.065 µM; inhibition at 0.001 µM ([4]; @ 0.0010 μM, read-out: MDM2 % @ concentration): 79%
CCC(O)(c1cc(F)c2c(c1)C(=O)N(Cc1ncc(C#N)cn1)[C@@]2(O[C@H]1CCOC1)c1ccc(Cl)cc1)C1(F)CCN(C)CC1 (single isomer, unassigned) [Example 561]	0.065 µM	0.021 µM	26 µM	–
CN1CCC(C(C)(O)c2cc(F)c3c(c2)C(=O)N(Cc2ncc(Cl)cn2)[C@@]3(OCC2(CO)CC2)c2ccc(Cl)cc2)CC1 (single isomer, unassigned) [Example 554]	0.07 µM	0.21 µM	–	–
C[C@@H](CO[C@]1(c2ccc(Cl)cc2)c2c(F)cc(C(C)(C)O)cc2C(=O)N1Cc1ccc(Cl)cn1)C(N)=O [Example 167, (2S)-3-{[(1R)-1-(4-Chlorophenyl)-2-[(5-chloropyridin-2-yl)methyl]-7-fluoro-5-(2-hydroxypropan-2-yl)-3-oxo-2,3-dihydro-1H-isoindol-1-yl]oxy}-2-methylpropanamide]	–	–	–	IC50 [2, 9]: 0.64 µM
[2H]C([2H])(O)C1(C([2H])([2H])O[C@]2(c3ccc(Cl)cc3)c3c(F)cc(C(C)(C)O)cc3C(=O)N2Cc2ncc(C#N)cn2)CC1 [Example 513, 2-{[(1R)-1-(4-chlorophenyl)-7-fluoro-1-({1-[hydroxydideuteromethyl]cyclo-propyl}dideuteromethoxy)-5-(2-hydroxypropan-2-yl)-3-oxo-2,3-dihydro-1H-isoindol-2-yl]methyl}pyrimidine-5-carbonitrile]	0.38 µM	0.26 µM	–	IC50 [4]: 3.1 nM
CCC(O)(c1cc(F)c2c(c1)C(=O)N(Cc1ccc(C#N)cn1)[C@@]2(O[C@H]1CCOC1)c1ccc(Cl)cc1)c1ccn(C)n1 (single isomer, unassigned) [Example 336]	–	0.1 µM	42 µM	–
CC[C@@](O)(c1cc(F)c2c(c1)C(=O)N(Cc1ncc(C#N)cn1)[C@@]2(O[C@H]1CCOC1)c1ccc(Cl)cc1)C1CCN(C)CC1 [Example 557, 2-{[(1R)-1-(4-chlorophenyl)-7-fluoro-5-[(1S)-1-hydroxy-1-(1-methylpiperidin-4-yl)propyl]-3-oxo-1-[(3S)-oxolan-3-yloxy]-2,3-dihydro-1H-isoindol-2-yl]methyl}pyrimidine-5-carbonitrile]	0.037 µM	0.25 µM	–	–
CCC(O)(c1cc(F)c2c(c1)C(=O)N(Cc1ncc(Cl)cn1)[C@@]2(OC)c1ccc(Cl)cc1)C1(F)CCN(C)CC1 (single isomer, unassigned) [Example 563]	0.027 µM	–	15 µM	–
CCC(O)(c1cc(F)c2c(c1)C(=O)N(Cc1ncc(Cl)cn1)[C@@]2(OCC1(C(N)=O)CC1)c1ccc(Cl)cc1)c1cn(C)cn1 (stereo partly drawn) [Example 486, 1-({[(1R)-1-(4-chlorophenyl)-2-[(5-chloropyrimidin-2-yl)methyl]-7-fluoro-5-[1-hydroxy-1-(1-methyl-1H-imidazol-4-yl)propyl]-3-oxo-2,3-dihydro-1H-isoindol-1-yl]oxy}methyl) cyclopropane-1-carboxamide]	–	0.075 µM	–	–
CCC(O)(c1cc(F)c2c(c1)C(=O)N(Cc1ncc(Cl)cn1)[C@@]2(OC[C@@H](C)O)c1ccc(Cl)cc1)C1(F)CCN(C)CC1 (single isomer, unassigned) [Example 572]	0.022 µM	–	18 µM	–
CO[C@]1(c2ccc(Cl)cc2)c2c(F)cc(C(C)(C)O)cc2C(=O)N1Cc1ccc(Cl)cn1 [Example 2, (3R)-3-(4-Chlorophenyl)-2-[(5-chloropyridin-2-yl)methyl]-4-fluoro-6-(2-hydroxypropan-2-yl)-3-methoxy-2,3-dihydro-1H-isoindol-1-one]	–	–	–	IC50 ([1]; Homo sapiens, SJSA-1, 72 h, read-out: SJSA1 IC50 (Protocol B), SJSA-1 cells, CellTiter-Glo, 72 hrs): 3.4 µM; IC50 [2, 9]: 1.7 µM
CCC(O)(c1cc(F)c2c(c1)C(=O)N(Cc1ncc(Cl)cn1)[C@@]2(O[C@H]1C[C@@H](O)C1)c1ccc(Cl)cc1)C1(F)CCN(C)CC1 (single isomer, unassigned) [Example 570]	0.046 µM	0.034 µM	–	–
CCC(O)(c1cc(F)c2c(c1)C(=O)N(Cc1ccc(C#N)cn1)[C@@]2(O[C@H]1CCOC1)c1ccc(Cl)cc1)C1(F)CCOCC1 (single isomer, unassigned) [Example 446]	–	–	29 µM	IC50 [1, 8]: 0.023 µM; MDM2 % @ concentration ([4]; @ 0.0010 μM): 76% @ 0.0010
CO[C@]1(c2ccc(Cl)cc2)c2ccc(C(C)(O)CN3CC(=O)NC3=O)cc2C(=O)N1Cc1ccc(Cl)cn1 (single isomer, unassigned) [Example 329]	–	–	–	inhibition at 30 µM ([3]; read-out: SN40R2 (Protocol A) % at concentration): 8%; MDM2 % @ concentration ([4]; @ 0.30 μM): 61% @ 0.30
CCC(O)(c1cc(F)c2c(c1)C(=O)N(Cc1ccc(C#N)nc1)[C@@]2(O[C@H]1CCOC1)c1ccc(Cl)cc1)c1cn(C)cn1 (single isomer, unassigned) [Example 431]	–	0.11 µM	–	–
